Common to all, as to experiment: ≥ marks a high value that may be exact or a test limit, other limits are often not marked, values filed in µg/mL are converted to µM
The subject of experiment [1] is Micrococcus luteus ATCC 9341.
For experiment [2], the system named is Escherichia coli DH5alpha.
The test system of experiment [3] is Pseudomonas aeruginosa.
For experiment [4], the system named is Klebsiella pneumoniae.
In experiment [5] the test system is Salmonella typhimurium.
The test system of experiment [6] is Pseudomonas aeruginosa CMCCB 10104.
Experiment [7] relates to Staphylococcus aureus ATCC 25923.
The test system of experiment [8] is Pseudomonas aeruginosa ATCC 27853.
The subject of experiment [9] is Pseudomonas aeruginosa PAO1.
For experiment [10], the system named is Escherichia coli ATCC 25922.
In experiment [11] the test system is Escherichia coli.
Experiment [12] relates to Escherichia coli ML-35p.
For experiment [13], the system named is Staphylococcus aureus ATCC 43300.
In experiment [14] the test system is Escherichia coli JW0013.

What is called MIC is the lowest concentration found to suppress growth. Higher therefore signals a need for much substance.

≈ marks a conversion by molar mass, not a printed value. Where “and” joins values, the source holds several entries; their conditions need not be identical. Equal values may be shown once.

In turn, `CC[C@H](C)[C@H](N)C(=O)N[C@@H](CC(C)C)C(=O)N1CCC[C@H]1C(=O)N[C@@H](Cc1c[nH]c2ccccc12)C(=O)N[C@@H](CCCCN)C(=O)N[C@@H](Cc1c[nH]c2ccccc12)C(=O)N1CCC[C@H]1C(=O)N[C@@H](Cc1c[nH]c2ccccc12)C(=O)N[C@@H](Cc1c[nH]c2ccccc12)C(=O)N1CCC[C@H]1C(=O)N[C@@H](Cc1c[nH]c2ccccc12)C(=O)N[C@@H](CCCN=C(N)N)C(=O)N[C@@H](C)C(N)=O` [ILPWKWPWWPWRA] yielded an MIC in experiment [1] of 0.8 µM (≈ 1.46 µg/mL).
Take `CC(C)C[C@H](N)C(=O)N1CCC[C@H]1C(=O)N[C@@H](Cc1c[nH]c2ccccc12)C(=O)N[C@@H](CCCCN)C(=O)N[C@@H](Cc1c[nH]c2ccccc12)C(=O)N1CCC[C@H]1C(=O)N[C@@H](Cc1c[nH]c2ccccc12)C(=O)N[C@@H](Cc1c[nH]c2ccccc12)C(=O)N1CCC[C@H]1C(=O)N[C@@H](Cc1c[nH]c2ccccc12)C(=O)N[C@@H](CCCN=C(N)N)C(=O)N[C@@H](CCCN=C(N)N)C(N)=O` [LPWKWPWWPWRR]: in experiment [1], the MIC was found to be 0.2 µM (≈ 0.359 µg/mL).
As for `CC[C@H](C)[C@H](N)C(=O)N[C@@H](CC(C)C)C(=O)N1CCC[C@H]1C(=O)N[C@@H](Cc1c[nH]c2ccccc12)C(=O)N[C@@H](CCCCN)C(=O)N[C@@H](Cc1c[nH]c2ccccc12)C(=O)N[C@@H](C)C(=O)N[C@@H](Cc1c[nH]c2ccccc12)C(=O)N[C@@H](Cc1c[nH]c2ccccc12)C(=O)N1CCC[C@H]1C(=O)N[C@@H](Cc1c[nH]c2ccccc12)C(=O)N[C@@H](CCCN=C(N)N)C(=O)N[C@@H](CCCN=C(N)N)C(N)=O` [ILPWKWAWWPWRR], the MIC in experiment [2] came out at 10 µM (≈ 18.8 µg/mL); in experiment [3], 50 µM (≈ 94 µg/mL); in [1], 0.4 µM (≈ 0.752 µg/mL); in experiment [4], 15 µM (≈ 28.2 µg/mL); in experiment [5], 25 µM (≈ 47 µg/mL).
Regarding `CC[C@H](C)[C@H](NC(=O)[C@@H](NC(=O)[C@@H](NC(=O)[C@H](CCCN=C(N)N)NC(=O)[C@H](Cc1cnc[nH]1)NC(=O)[C@H](Cc1ccccc1)NC(=O)[C@H](Cc1cnc[nH]1)NC(=O)CNC(=O)[C@H](CCCCN)NC(=O)[C@H](CO)NC(=O)[C@H](CCCCN)NC(=O)[C@H](CC(=O)O)NC(=O)[C@H](Cc1cnc[nH]1)NC(=O)[C@H](CC(=O)O)NC(=O)[C@H](CCCN=C(N)N)NC(=O)CNC(=O)[C@H](CCC(=O)O)NC(=O)[C@H](CCC(N)=O)NC(=O)[C@H](CCCCN)NC(=O)[C@H](CC(N)=O)NC(=O)[C@@H](N)Cc1cnc[nH]1)C(C)C)C(C)C)C(=O)N[C@@H](Cc1cnc[nH]1)C(=O)N[C@@H](Cc1cnc[nH]1)C(=O)N[C@@H](CCCCN)C(=O)NCC(=O)NCC(=O)N[C@@H](CCCCN)C(=O)N[C@@H](C)C(=O)N[C@@H](Cc1cnc[nH]1)C(=O)O` [HNKQEGRDHDKSKGHFHRVVIHHKGGKAH], the MIC is 2.17 µM (≈ 7.34 µg/mL) in experiment [6]; greater than 30 µM in [7]; 1.57 µM (≈ 5.29 µg/mL) in experiment [8]; 3.81 µM (≈ 12.9 µg/mL) in [9]; 1.67 µM (≈ 5.64 µg/mL) in experiment [10]; 1.05 µM and 1.17 µM in experiment [11]. The results for the minimal inhibitory concentration (MIC) in experiment [12] and in [13] were 2.2 µM (≈ 7.44 µg/mL) and greater than 30 µM, respectively.
`CC[C@H](C)[C@H](NC(=O)[C@H](CCCN=C(N)N)NC(=O)[C@H](CCCN=C(N)N)NC(=O)[C@@H]1CCCN1C(=O)[C@@H]1CCCN1C(=O)[C@H](CCCN=C(N)N)NC(=O)[C@@H]1CCCN1C(=O)[C@H](CCCN=C(N)N)NC(=O)[C@@H]1CCCN1C(=O)[C@H](CC(C)C)NC(=O)[C@H](Cc1cnc[nH]1)NC(=O)[C@@H]1CCCN1C(=O)[C@@H]1CCCN1C(=O)[C@H](CCCCN)NC(=O)[C@H](CC(=O)O)NC(=O)[C@@H](N)C(C)C)C(=O)N[C@@H](Cc1ccc(O)cc1)C(=O)N[C@@H](CC(N)=O)C(=O)N[C@@H](CCCN=C(N)N)C(N)=O` [VDKPPHLPRPRPPRRIYNR] returned an MIC in experiment [14] of 2.03 µM (≈ 4.8 µg/mL).
